SMILES strings stand for the structures. The source made the active and inactive calls. No cut-off for these calls is given here.

As usually defined, the IC50 is the midpoint of a concentration-inhibition curve.

One assay relates to DU-145. The assay is described as follows: Antiproliferative activity against human DU145 cells. It counts as functional, cell-based.
The next assay has as its system MCF7. In words: Antiproliferative activity against human MCF7 cells. Type of assay: functional, cell-based.
Assay [1] deals with IMR-32. In words: Neurotrophic activity in human IMR32 cells assessed as appearance of neurites at 1 to 10 uM after 96 hrs by bright field microscopic analysis. It counts as functional, cell-based.
Assay [2] has as its system IMR-32. In words: Cytotoxicity against human IMR32 cells after 48 hrs by SRB assay. It counts as cell-based. The settings on record: IMR-32, 48 h. Background: Sulforhodamine B stains cellular protein and so reports cell mass.
For another assay, the system named is A549. The assay is described as follows: Antiproliferative activity against human A549 cells. Type of assay: functional, cell-based.
In a further assay the test system is HepG2. The assay is described as follows: Antiproliferative activity against human HepG2 cells. Type of assay: functional, cell-based.

Turning to `Brc1ccc2c(c1)[C@H]1C=CC[C@H]1[C@@H](c1ccccc1)N2`, the outcome in the assay with DU-145, in the assay on MCF7, with IMR-32 [1], with A549 and in the assay on HepG2 was inactive. In the assay on IMR-32 [2], the 50% inhibitory concentration (IC50) was 94.4 µM.
For `CC(=O)N1c2cc([N+](=O)[O-])ccc2[C@H]2[C@@H](O)[C@H](N=[N+]=[N-])C[C@H]2[C@H]1c1ccccc1`, the outcome in the assay with DU-145, with MCF7, in the assay on IMR-32 [1], with A549 and with HepG2 was inactive. The compound also came in with a half-inhibitory concentration (IC50) in the assay on IMR-32 [2] above 100 µM.
With `C=CCO[C@@H]1[C@@H]2c3ccccc3N(C(C)=O)[C@H](c3ccccc3)[C@@H]2C[C@H]1N=[N+]=[N-]`, the result in the assay on DU-145, with MCF7, in the assay on IMR-32 [1], with A549 and in the assay on HepG2 was inactive. The same compound came in with a half-inhibitory concentration (IC50) with IMR-32 [2] of 17.4 µM.
With `Clc1ccc([C@H]2Nc3ccccc3[C@H]3C=CC[C@H]32)cc1`, the outcome in the assay on DU-145, in the assay with MCF7, with IMR-32 [1], in the assay with A549 and in the assay with HepG2 was inactive. The same compound returned an IC50 with IMR-32 [2] above 100 µM.
`C=CCO[C@@H]1[C@@H]2c3ccccc3N(C(C)=O)[C@H](c3cccc(Br)c3)[C@@H]2C[C@H]1N=[N+]=[N-]`: the result in the assay on DU-145, in the assay on MCF7, in the assay on IMR-32 [1], in the assay on A549 and with HepG2 was inactive. The compound further displayed a 50% inhibitory concentration (IC50) in the assay on IMR-32 [2] above 100 µM.
With `CC(=O)N1c2ccccc2[C@@H]2[C@@H](C[C@@H]3O[C@H]23)[C@H]1c1ccc(Cl)cc1`, the outcome with DU-145, in the assay on MCF7, in the assay on IMR-32 [1], in the assay on A549 and in the assay on HepG2 was inactive. In the assay on IMR-32 [2], this compound showed an IC50 above 100 µM.
On to `O[C@@H]1[C@@H]2c3cc(Br)ccc3N[C@H](c3ccccc3)[C@@H]2C[C@@H]1O`, for which the result in the assay with DU-145, in the assay with MCF7, in the assay with IMR-32 [1], in the assay with A549 and with HepG2 was inactive. This compound came in with an IC50 in the assay with IMR-32 [2] above 100 µM.
On to `C=CCO[C@H]1C(n2cc(-c3ccccc3)nn2)C[C@@H]2[C@H]1c1ccccc1N(C(C)=O)[C@@H]2c1ccccc1` (single isomer, unassigned), for which the outcome in the assay with DU-145, in the assay with MCF7, in the assay with IMR-32 [1], in the assay on A549 and with HepG2 was inactive. Besides, in the assay on IMR-32 [2], the midpoint of inhibition, the IC50, lay at 65 µM.
Regarding `CC(=O)N1c2ccccc2[C@H]2C=CC[C@H]2[C@H]1c1ccccc1`, the outcome in the assay with DU-145, with MCF7, in the assay with IMR-32 [1], with A549 and in the assay on HepG2 was inactive. Moreover, the IC50 in the assay with IMR-32 [2] came to 61.6 µM.
For the compound `Fc1ccc2c(c1)N[C@H](c1ccccc1)[C@@H]1CC=C[C@H]21`, the outcome in the assay on DU-145, in the assay with MCF7, in the assay on IMR-32 [1], in the assay with A549 and in the assay on HepG2 was inactive. In addition, the IC50 in the assay on IMR-32 [2] was above 100 µM.
Take `CC(=O)N1c2ccccc2[C@H]2C=CC[C@H]2[C@H]1c1ccc(Cl)cc1`: the outcome in the assay on DU-145, in the assay on MCF7, in the assay with IMR-32 [1], with A549 and in the assay with HepG2 was inactive. Further, 94.7 µM corresponded to half-maximal inhibition in the assay on IMR-32 [2] (IC50).
Take `CC(=O)N1c2ccccc2[C@@H]2[C@@H](C[C@@H]3O[C@H]23)[C@H]1c1cccc(Br)c1`: the outcome in the assay with DU-145, with MCF7, in the assay on IMR-32 [1], in the assay on A549 and with HepG2 was inactive. The 50% inhibitory concentration (IC50) with IMR-32 [2] was above 100 µM.
Turning to `O[C@@H]1[C@@H]2c3ccccc3N[C@H](c3ccc(Cl)cc3)[C@@H]2C[C@@H]1O`, the result with DU-145, in the assay with MCF7, with IMR-32 [1], with A549 and with HepG2 was inactive. Further, the IC50 with IMR-32 [2] came out at 64.6 µM.
Take `O=[N+]([O-])c1ccc2c(c1)N[C@H](c1ccccc1)[C@@H]1C[C@H](O)[C@H](O)[C@H]21`: the result with DU-145, with MCF7, with IMR-32 [1], in the assay with A549 and in the assay with HepG2 was inactive. Half-maximal inhibition with IMR-32 [2] (IC50) was put at 57.1 µM.
On to `Brc1cccc([C@H]2Nc3ccccc3[C@H]3C=CC[C@H]32)c1`, for which the outcome in the assay with DU-145, in the assay on MCF7, with IMR-32 [1], in the assay with A549 and in the assay with HepG2 was inactive. Also, the IC50 in the assay with IMR-32 [2] was above 100 µM.
As for `Cc1ccccc1[C@H]1Nc2ccccc2[C@H]2[C@@H](O)[C@@H](O)C[C@H]21`, the result in the assay with DU-145, with MCF7, in the assay with IMR-32 [1], in the assay with A549 and with HepG2 was inactive. The same compound registered an IC50 in the assay with IMR-32 [2] above 100 µM.
As for `CC(=O)N1c2ccccc2[C@H]2C=CC[C@H]2[C@H]1c1cccc(Br)c1`, the result in the assay on DU-145, in the assay on MCF7, in the assay on IMR-32 [1], in the assay with A549 and with HepG2 was inactive. For the same compound, the IC50 with IMR-32 [2] was above 100 µM.
Regarding `CC(=O)N1c2ccc(Br)cc2[C@H]2C=CC[C@H]2[C@H]1c1ccccc1`, the outcome in the assay on DU-145, with MCF7, in the assay with IMR-32 [1], in the assay with A549 and in the assay on HepG2 was inactive. Besides, in the assay with IMR-32 [2], half-maximal inhibition (IC50) was put at 89.9 µM.
As for `CC(=O)N1c2ccccc2[C@H]2[C@@H](O)[C@@H](O)C[C@H]2[C@H]1c1ccccc1`, the outcome with DU-145, with MCF7, with IMR-32 [1], in the assay with A549 and in the assay on HepG2 was inactive. For the same compound, the IC50 in the assay on IMR-32 [2] is above 100 µM.
For the compound `COc1cccc2c1C(=O)c1c(O)c3c(c(O)c1C2=O)C[C@@](O)(C(=O)CO)C[C@@H]3O[C@H]1C[C@H](N)[C@H](O)[C@H](C)O1` [DOXORUBICIN], half-maximal inhibition in the assay with IMR-32 [2] (IC50) required 8.49 µM.

The values are drawn from ChEMBL document CHEMBL4184140, “Expanding the tetrahydroquinoline pharmacophore” (Bioorg Med Chem Lett, 2017).
